“And” between values parts separate entries of the source, which are not always exact repeats. Equal entries are not always repeated.
Experiments:
[1] = target: T1, CA I (Homo sapiens, UniProt P00915); assay: Fluorescent thermal shift assay (FTSA), CA I; assay type: binding; settings: for Kd: FTSA; for energetic contribution (difference in ΔG of binding), CA I: against compound 2, from FTSA, pH 7.0, 37°C
T1 construct: five isoforms of human recombinant catalytic domains of carbonic anhydrases (CAs); made in house
T1 sequence (P00915 4-261 limits assumed): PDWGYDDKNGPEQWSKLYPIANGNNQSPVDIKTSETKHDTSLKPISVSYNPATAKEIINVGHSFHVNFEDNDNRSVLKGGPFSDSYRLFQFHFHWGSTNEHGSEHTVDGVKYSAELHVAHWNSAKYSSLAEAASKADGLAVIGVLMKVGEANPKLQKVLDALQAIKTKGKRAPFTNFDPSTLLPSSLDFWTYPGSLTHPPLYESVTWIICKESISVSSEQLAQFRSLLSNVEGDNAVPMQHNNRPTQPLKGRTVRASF

[2] = target: T2, CA VII (Homo sapiens, UniProt P43166); assay: Fluorescent thermal shift assay (FTSA), CA VII; assay type: binding; settings: for Kd: FTSA
T2 construct: five isoforms of human recombinant catalytic domains of carbonic anhydrases (CAs); made in house
T2 sequence (P43166 5-262 limits assumed): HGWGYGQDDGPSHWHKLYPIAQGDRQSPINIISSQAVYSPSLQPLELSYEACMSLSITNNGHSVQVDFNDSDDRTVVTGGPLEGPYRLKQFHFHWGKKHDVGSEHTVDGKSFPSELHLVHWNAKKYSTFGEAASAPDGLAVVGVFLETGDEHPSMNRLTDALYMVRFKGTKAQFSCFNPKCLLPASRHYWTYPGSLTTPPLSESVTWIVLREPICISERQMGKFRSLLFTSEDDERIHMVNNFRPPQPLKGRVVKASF

[3] = target: T3, CA XII (Homo sapiens, UniProt O43570); assay: Fluorescent thermal shift assay (FTSA), CA XII; assay type: binding
T3 construct: five isoforms of human recombinant catalytic domains of carbonic anhydrases (CAs); made in house
T3 sequence (O43570 30-289 limits assumed): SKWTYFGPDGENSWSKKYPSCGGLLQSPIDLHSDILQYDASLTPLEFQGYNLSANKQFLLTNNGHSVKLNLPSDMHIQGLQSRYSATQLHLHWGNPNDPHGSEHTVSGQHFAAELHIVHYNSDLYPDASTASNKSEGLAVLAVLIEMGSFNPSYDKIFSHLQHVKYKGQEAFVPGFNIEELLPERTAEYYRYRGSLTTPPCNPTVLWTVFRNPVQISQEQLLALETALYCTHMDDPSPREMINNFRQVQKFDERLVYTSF

[4] = target: T4, CA XIII (Homo sapiens, UniProt Q8N1Q1); assay: Fluorescent thermal shift assay (FTSA), CA XIII; assay type: binding; settings: for shift of the melting temperature Tm, CA XIII: compound added to 200 μM, pH 7.0
T4 construct: five isoforms of human recombinant catalytic domains of carbonic anhydrases (CAs); made in house
T4 sequence (Q8N1Q1 4-261 limits assumed): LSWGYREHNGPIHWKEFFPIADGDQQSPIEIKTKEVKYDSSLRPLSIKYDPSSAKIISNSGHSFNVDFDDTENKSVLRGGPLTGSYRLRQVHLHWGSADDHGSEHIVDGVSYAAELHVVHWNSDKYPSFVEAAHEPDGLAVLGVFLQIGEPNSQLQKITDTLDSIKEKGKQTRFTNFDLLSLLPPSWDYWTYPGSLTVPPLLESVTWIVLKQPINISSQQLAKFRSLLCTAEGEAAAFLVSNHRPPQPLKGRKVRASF

[5] = target: T1, CA I; assay: Isothermal titration calorimetry (ITC), CA I; assay type: binding
[6] = target: T2, CA VII; assay: Isothermal titration calorimetry (ITC), CA VII; assay type: binding
[7] = target: T3, CA XII; assay: Isothermal titration calorimetry (ITC), CA XII; assay type: binding
[8] = target: T4, CA XIII; assay: Isothermal titration calorimetry (ITC), CA XIII; assay type: binding
[9] = target: CA VII; settings: read-out: affinity, CA VII; inhibition method, literature value ref 5; cited from earlier work
[10] = target: T5, CA II (Homo sapiens, UniProt P00918); assay: Fluorescent thermal shift assay (FTSA), CA II; assay type: binding; settings: 37°C, pH 7.0, read-out: Dissociation constants Kd, CA II
T5 construct: five isoforms of human recombinant catalytic domains of carbonic anhydrases (CAs); made in house

[11] = target: T5, CA II; assay: Isothermal titration calorimetry (ITC), CA II; assay type: binding
[12] = 37°C, pH 7.0, read-out: Dissociation constants Kd, CA I
[13] = 37°C, pH 7.0, read-out: Dissociation constants Kd, CA XIII
[14] = ITC, 37°C, pH 7.0, read-out: Dissociation constants Kd, CA I
[15] = 37°C, pH 7.0, read-out: Dissociation constants Kd, CA VII
[16] = ITC, 37°C, pH 7.0, read-out: Dissociation constants Kd, CA XII
[17] = 37°C, pH 7.0, read-out: Dissociation constants Kd, CA XII
[18] = ITC, 37°C, pH 7.0, read-out: Dissociation constants Kd, CA II

O=C1NS(=O)(=O)c2ccccc21 [Compound 1, saccharin, reference compound]
Kd [1, 12]: > 10000 µM | Kd ([1]; no shift up to 7.5 mM, read-out: Kd, CA I): > 10000 µM | affinity weaker than the literature value, CA VII ([2]; FTSA Kd against 10 nM of ref 5): 100,000 fold | Kd ([2]; read-out: Kd, CA VII): 1000 µM | Kd ([3]; read-out: Kd, CA XII): 5900 µM | Kd [4, 13]: 2000 µM | Kd ([4]; read-out: Kd, CA XIII): 2000 µM | Kd [5, 14]: > 100 µM | Kd ([5]; ITC, all tested CAs, read-out: Kd, CA I): > 100 µM | Kd [6, 15]: > 100 µM | Kd ([6]; all tested CAs, read-out: Kd, CA VII): > 100 µM | Kd [7, 16]: > 100 µM | Kd ([7]; ITC, all tested CAs, read-out: Kd, CA XII): > 100 µM | Kd [8, 13]: > 100 µM | Kd ([8]; all tested CAs, read-out: Kd, CA XIII): > 100 µM | Ki [9]: 0.01 µM

NS(=O)(=O)c1ccc2c(c1)S(=O)(=O)NC2=O [Compound 2]
Kd [10]: 0.4 µM | Kd [3, 17]: 0.22 µM | Kd [4, 13]: ~0.2 µM and 0.2 µM | Kd [5]: 1.4 µM | Kd [11]: 0.29 µM | Kd [7]: 0.099 µM | Kd [8, 13]: 0.12 µM

NS(=O)(=O)c1ccc2c(c1)S(=O)(=O)N(CCc1ccccc1)C2=O [Compound 4]
Kd ([1]; read-out: affinity (Kd), CA I): 0.00033 µM | energetic contribution (difference in ΔG of binding), CA I [1]: -5.93 kcal/mol | Kd [10]: 0.0025 µM | Kd [2, 15]: 0.0043 µM | Kd [3, 17]: 0.025 µM | Kd [4, 13]: 0.0067 µM | shift of the melting temperature Tm, CA XIII [4]: significant | Kd [5, 14]: < 0.02 µM | Kd [11, 18]: < 0.02 µM | Kd [6, 15]: < 0.02 µM | Kd [7, 16]: 0.04 µM | Kd [8, 13]: < 0.02 µM

CC#CCN1C(=O)c2ccc(S(N)(=O)=O)cc2S1(=O)=O [Compound 3]
Kd [1, 12]: 0.018 µM | energetic contribution (difference in ΔG of binding), CA I [1]: -3.47 kcal/mol | Kd [10]: 0.02 µM | Kd [2, 15]: 0.11 µM | Kd [3, 17]: 0.29 µM | Kd [4, 13]: 0.045 µM | shift of the melting temperature Tm, CA XIII [4]: significant | Kd [5, 14]: 0.028 µM | Kd [11, 18]: 0.056 µM | Kd [6, 15]: 0.16 µM | Kd [7, 16]: 0.25 µM | Kd [8, 13]: 0.047 µM
